Measured values published in patent publication US10077293B2, “Antimicrobial peptide analogues derived from abalone (Haliotis discus) and antimicrobial pharmaceutical composition containing the same” (priority 2016, dated 2018).
“Also recorded” adds a separate entry of the source. Ends that are not written are not given here.

How the values were obtained:
[1] = system: E. coli ML35p; test: Chromogenic bacteriolytic plate assay; type: cell-based; conditions: E. coli ML35p (FIG. 6)
Method: In order to investigate the lytic activity of the analogues for bacterial membrane, chromogenic bacteriolytic plate assay was conducted using E. coli ML35p containing a chromosomal IPTG-inducible β-galactosidase gene (Mardones, G., Venegas, A. Chromogenic plate assay distinguishing bacteriolytic from bacteriostatic activity of an antibiotic agent. J Microbiol Methods. 2000, 40(3), 199-206). After inoculating 2 mL of E. coli ML35p to TSB and culturing at 37° C. for 16-18 hours, a mixture of 50 μL of the cultured microorganism solution, 10 μL of 1 mM IPTG and 50 μL of 50 mg/mL X-gal was poured onto TSB containing 0.8% agarose at 42° C. the next day. After boring a well on the solidified plate, 5 μL of each peptide analogue solution was introduced and incubation was conducted for 3 hours. Then, after pouring 2×TSB containing 10 mL of 1.5% agarose to the plate and solidifying, incubation was conducted again for 16-18 hours. After the incubation, the size (diameter) of a clearing zone and the presence or absence of a blue line at the edge portion were investigated.

[2] = system: Gram positive and Gram negative bacteria; conditions: background statement; cited from earlier work
[3] = system: C. albicans; conditions: parent peptide, background statement; cited from earlier work
[4] = system: human red blood cells; type: cell-based
Method: Hemolytic activity was measured using human red blood cells. After adding to human blood an equal amount of phosphate buffered saline (PBS, 50 mM sodium phosphate, 150 mM NaCl, pH 7.4), mixing and centrifuging at 8000×g and 4° C. for 1 minute, the supernatant was removed and the remaining red blood cells were washed 3 times. The red blood cells were added to PBS to a concentration of 3% hematocrit. In order to measure the hemolytic activity, 90 μL of the 3% hematocrit was introduced to an e-tube and then 10 μL of each analogue solution (×10) was added. After incubation of each e-tube at 37° C. for 1 hour, centrifugation was performed at 13,000×g and 4° C. for 10 minutes. After taking 70 μL from each supernatant and transferring to a 96-well microtiter plate, release of hemoglobin was measured at 405 nm. Triton X-100 (0.1%) was used as a control group for 100% lysis of red blood cells and the hemolytic activity was calculated according to the following equation. % Hemolysis=[(Abs 405 nm in the peptide solution−Abs 405 nm in buffer)/(Abs 405 nm in 0.1% Triton X-100−Abs 405 nm in buffer)]×100

[5] = system: P. aeruginosa KCTC2004; test: Ultrasensitive radial diffusion assay (URDA), antimicrobial activity; type: cell-based, Pseudomonas aeruginosa; conditions: P. aeruginosa KCTC2004, Gram −
Method: (§1) Four species of Gram positive bacteria (Bacillus subtilis, Staphylococcus epidermidis, […] and Propionibacterium acnes), five species of Gram negative bacteria (E. coli D31, E. coli ML35p, Shigella flexneri, Pseudomonas aeruginosa and Vibrio parahaemolyticus) and one yeast species (Candida albicans) were used for experiments. The antimicrobial activity was measured by ultrasensitive radial diffusion assay (URDA) using two layers of media of different concentrations. First, the microorganisms were pre-cultured in each medium for 18 hours and the concentration of the microorganisms was adjusted to 84% T (≈1×10^8 CFU/mL) using a colorimeter (Product No. 52-1210, BioMerieux, Inc., USA). Then, 0.5 mL of the diluted microorganism solution was added to an underlay gel containing 9.5 mL of 0.03% TSB, 1% type I agarose and 10 mM phosphate buffer (PB; pH 6.5) and plated and solidified on a plate after mixing well. After boring a well with a diameter of 2.5 mm on the solidified plate using a punch, 5 μL of each analogue solution was introduced. All the analogues were dissolved in 5 μL of 0.01% acetic acid to avoid any effect of solvent. After the analogue permeated into the medium, the microorganisms were cultured for 3 hours and an overlay gel containing 10 mL of 6% TSB, 1% type I agarose and 10 mM phosphate buffer (pH 6.5) was poured and solidified. Then, the microorganisms were cultured again for 18 hours at the same temperature. Next day, the antimicrobial activity was determined by measuring the size (diameter) of a clear zone formed around the well. Piscidin 1, an antimicrobial peptide derived from the mast cells of a hybrid striped bass, was used as a control.

[6] = system: S. epidermidis KCTC1917; test: as above; type: cell-based, Staphylococcus epidermidis; conditions: S. epidermidis KCTC1917, Gram +
Method: as §1

[7] = system: S. mutans KCCM40105; test: as above; type: cell-based, Streptococcus mutans; conditions: S. mutans KCCM40105, Gram +
Method: as §1

[8] = system: C. albicans; test: as above; type: cell-based, Candida albicans
Method: as §1

[9] = system: B. subtilis KCTC1021; test: as above; type: cell-based, Bacillus subtilis; conditions: B. subtilis KCTC1021, Gram +
Method: as §1

[10] = system: E. coli D31; test: as above; type: cell-based; conditions: E. coli D31, Gram −
Method: as §1

[11] = system: Shigella flexneri KCTC2009; test: as above; type: cell-based; conditions: Shigella flexneri KCTC2009, Gram −
Method: as §1

[12] = system: Propionibacterium acnes KCTC11946; test: as above; type: cell-based; conditions: Propionibacterium acnes KCTC11946, Gram +
Method: as §1

[13] = system: Vibrio parahaemolyticus KCCM42264; test: as above; type: cell-based
Method: as §1

[14] = system: E. coli ML35p; test: as above; type: cell-based; conditions: Gram −
Method: as §1

[15] = system: E. coli ML35p; test: Killing kinetics study; type: cell-based
Method: For killing kinetics study of the analogues whose bactericidal process was identified, killing rate for each analogue was investigated at 1×MIC and 5×MIC for 60 minutes. For this, the analogue was added to an e-tube containing 10^6 CFU/mL of E. coli ML35p. While incubating at 37° C., 10 μL of the solution was taken from the tube at predetermined times (5, 10, 20, 30, 40, 50 and 60 minutes after the addition of the analogue) and plated on a TSA plate. Then, the number of formed colonies was counted. As control groups, no analogue or piscidin 1 was added. The killing % for the analogues was represented as the number of formed colonies relative to that when no analogue was added.

[16] = C. albicans KCCM42264 (as printed in Table 2), yeast

Compound | bacteriolytic activity: blue line at the edge portion of the clearing zone [1] | hemolytic activity (in words, FIG. 4) [4] | Minimal effective concentration [5] | Minimal effective concentration [7] | Minimal effective concentration [8, 16] | Minimal effective concentration [9] | Minimal effective concentration [10] | Minimal effective concentration [11] | Minimal effective concentration [13] | Minimal effective concentration [14] | further results
[H]/N=C(/N)N[C@H]1[C@H](O)[C@@H](O)[C@H](O[C@@H]2O[C@@H](C)[C@](O)(C=O)[C@H]2O[C@@H]2O[C@@H](CO)[C@H](O)[C@@H](O)[C@@H]2NC)[C@@H](N/C(N)=N\[H])[C@@H]1O [streptomycin] | showed a blue line at the edge portion |  |  |  |  |  |  |  |  |  | 
hdMolluscidin (AATKPKKAGAEAAPKKPAKKQTKKKPAKKAGGKKKPKRAGAKKAKK; listed as Haliotis discus) [antimicrobial peptide consisting of 46 amino acids, purified from the gill of abalone (Haliotis discus); parent peptide] |  |  |  |  |  |  |  |  |  |  | antimicrobial activity against Gram positive and Gram negative bacteria (in words) [2]: strong antimicrobial activity; antimicrobial activity against C. albicans (in words) [3]: little antimicrobial activity; also recorded: no activity
LLWKLLKKL [SEQ ID NO 4, LLWKLLKKL] |  | good hemolytic activity |  |  |  |  |  |  |  |  | 
KWLLKLLKKL [SEQ ID NO 10, KWLLKLLKKL] |  | good hemolytic activity |  |  |  |  |  |  |  |  | 
LLWKLLKKLLK-NH2 [SEQ ID NO 3, LLWKLLKKLLK] |  |  | 15.2 µg/mL | 15.8 µg/mL | 15.0 µg/mL | 14.0 µg/mL | 19.4 µg/mL | 10.0 µg/mL | 9.1 µg/mL | 13.8 µg/mL | Minimal effective concentration [6]: 17.2 µg/mL; Minimal effective concentration [12]: 14.5 µg/mL
FFHHIFRGIVHVGKTIHRLVTG-NH2 [Piscidin 1, reference compound] | showed an edge line |  | 8.0 µg/mL | 3.2 µg/mL | >62.5 µg/mL | 7.5 µg/mL | 3.8 µg/mL | 8.0 µg/mL | 3.0 µg/mL | 2.3 µg/mL | Minimal effective concentration ([8]; C. albicans KCTC7965, yeast): >62.5 µg/mL; time to kill E. coli ML35p ([15]; 1×MIC): ≤ 20 min; time to kill E. coli ML35p ([15]; 5×MIC): ≤ 5 min
